For 16 molecules, IC50 results are on record in patent US20230303575A1, “FGFR AND MUTATION INHIBITOR THEREOF, PREPARATION METHOD THEREFOR AND USE THEREOF” (Abbisko Therapeutics Co., Ltd., priority 2020, published 2023).

Holding throughout (type): cell-based
Assay [1] deals with T1, FGFR2 V564I (Homo sapiens, UniProt P21802, V564I).
T1 construct: P41212 (Transcription factor ETV6)
In words: Cell proliferation assay for Tel-FGFR2 V564I in BaF3. Conditions: BaF3 cells expressing FGFR2 V564I fusion, 48 hrs, CellTiter Glo. As to the method:
(§1) By transfection, cell strains of the intracellular kinase domain fusion protein of TEL-FGFR2 WT or the intracellular domain fusion proteins containing FGFR2 V564, V564F, V564L, N549K and K659M mutations were stably expressed in Baf cells. On day 1, the cell suspension was plated into a 96-well plate containing growth medium (DMEM containing 1% Glutamax, 10% FBS and 1% Pen/Strep) at 2000-4000 cells/90 μL/per well, and then the mixture was incubated overnight at 37° C. and 5% CO2. On day 2, 10 μL of growth medium containing a 10-fold stock solution of test compound was added to the cell culture (9 dose points, 3× serial dilution, starting from 1 μM, finally 0.3% DMSO). After incubation at 37° C. and 5% CO2 for 48 hrs, 50 μL of CellTiter Glo (CTG) reagent was added to the cell-containing 96-well plate on day 3, and the plate was then incubated at room temperature for 10 min. Then relative light units (RLUs) were measured on a microplate reader with a luminescence detection module. RLU values were normalized to % survival, and concentration-response curves were plotted using Prism to calculate IC50 (nM).

Assay [2] has as its target T2, FGFR2 V564F (Homo sapiens, UniProt P21802, V564F).
T2 construct: P41212 (Transcription factor ETV6)
As to the kind of experiment: Cell proliferation assay for Tel-FGFR2 V564F in BaF3. Conditions: BaF3 cells expressing FGFR2 V564F fusion, 48 hrs, CellTiter Glo. As to the method:
as §1

The target of assay [3] is T3, FGFR3 V555M (Homo sapiens, UniProt P22607, V555M).
T3 construct: P41212 (Transcription factor ETV6)
T3 sequence (P22607 472-761 V555M limits assumed): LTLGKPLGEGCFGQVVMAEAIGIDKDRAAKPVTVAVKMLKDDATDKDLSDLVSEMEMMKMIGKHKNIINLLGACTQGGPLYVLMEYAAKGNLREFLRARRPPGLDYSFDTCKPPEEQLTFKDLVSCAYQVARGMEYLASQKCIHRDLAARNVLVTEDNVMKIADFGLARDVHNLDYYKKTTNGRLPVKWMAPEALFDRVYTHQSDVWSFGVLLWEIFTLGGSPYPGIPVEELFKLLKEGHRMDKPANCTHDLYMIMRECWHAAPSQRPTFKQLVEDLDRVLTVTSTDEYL
As to the kind of experiment: Cell proliferation assay for FGFR3 V555M in BaF3. Conditions: BaF3 cells expressing FGFR3 V555M fusion, 48 hrs, CellTiter Glo. As to the method: For the compounds of the Examples of the present invention, cell strains of TEL-FGFR3 WT intracellular kinase domain fusion protein or intracellular domain fusion protein containing FGFR3 V555M or FGFR3 N540K mutation were stably expressed in Baf cells by transfection and were used to determine the cell proliferation effect of BaF3-Tel-FGFR3 WT. FGFR3 V555M or FGFR3 N540K. The specific test process was as follows: • 1) The cell suspension was plated into a 96-well plate containing growth medium (DMEM containing 1% Glutamax, 10% FBS and 1% Pen/Strep) at 2000-4000 cells/90 μL/per well, and then the mixture was incubated overnight at 37° C. and 5% CO2. • 2) 10 μL of growth medium containing a 10-fold stock solution of test compound was added to the cell culture (9 dose points, 3× serial dilution, starting from 1 μM, finally 0.3% DMSO). • 3) The mixture was incubated at 37° C. and 5% CO2 for 48 hrs. • 4) 50 μL of CellTiter Glo (CTG) reagent was added to the cell-containing 96-well plate, and the plate was then incubated at room temperature for 10 min. • 5) Relative light units (RLUs) were measured on a microplate reader with a luminescence detection module. RLU values were normalized to % survival, and concentration-response curves were plotted using Prism to calculate IC50 (nM).

For assay [4], the target named is T4, FGFR2 V564L (Homo sapiens, UniProt P21802, V564L).
T4 construct: P41212 (Transcription factor ETV6)
T4 sequence (P21802 481-770 V564L limits assumed): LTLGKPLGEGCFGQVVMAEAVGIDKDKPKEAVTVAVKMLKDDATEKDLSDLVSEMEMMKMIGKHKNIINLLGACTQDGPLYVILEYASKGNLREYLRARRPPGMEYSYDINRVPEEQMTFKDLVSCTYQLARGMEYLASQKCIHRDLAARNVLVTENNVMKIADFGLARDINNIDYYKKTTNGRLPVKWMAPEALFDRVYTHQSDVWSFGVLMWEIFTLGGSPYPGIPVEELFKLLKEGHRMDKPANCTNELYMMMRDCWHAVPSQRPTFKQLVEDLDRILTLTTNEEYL
In words: Cell proliferation assay for Tel-FGFR2 V564L in BaF3. As to conditions: BaF3 cells expressing FGFR2 V564L fusion, 48 hrs, CellTiter Glo. As to the method:
as §1

Assay [5] deals with T5, FGFR2 N549K (Homo sapiens, UniProt P21802, N549K).
T5 construct: P41212 (Transcription factor ETV6)
T5 sequence (P21802 481-770 N549K limits assumed): as the sequence (P21802 481-770 V564L limits assumed) above, with N69K, L84V counted along it
As to the kind of experiment: Cell proliferation assay for Tel-FGFR2 N549K in BaF3. Conditions: BaF3 cells expressing FGFR2 N549K fusion, 48 hrs, CellTiter Glo. As to the method: as §1

Each structure is given as a SMILES string.

T1 sequence (P21802 481-770 V564I limits assumed): as the sequence (P21802 481-770 V564L limits assumed) above, with L84I counted along it
T2 sequence (P21802 481-770 V564F limits assumed): as the sequence (P21802 481-770 V564L limits assumed) above, with L84F counted along it

For the molecule `C=CC(=O)N1CC[C@H](n2nc(C#Cc3cc4nc(C5CC5)sc4cc3F)c3c(N)ncnc32)C1` [Example 59, (S)-1-(3-(4-amino-3-((2-cyclopropyl-6-fluorobenzo [d]thiazol-5-yl)ethynyl)-1H-pyrazolo[3,4-d]pyrimidin-1-yl)pyrrolidin-1-yl) prop-2-en-1-one], the IC50 in assay [1] was not above 0.5 nM; in assay [2], 0.5 to 5 nM; in assay [3] it was 0.5 to 5 nM; in assay [4] it was 0.5 to 5 nM; in assay [5], 0.5 to 5 nM.
For the molecule `C=CC(=O)N1CC[C@H](n2cc(C#Cc3ccc4oc(CC)nc4c3)c3c(N)ncnc32)C1` [Example 3, (S)-1-(3-(4-amino-5-((2-ethylbenzo[d]oxazol-5-yl)ethynyl)-7H-pyrrolo[2,3-d]pyrimidin-7-yl)pyrrolidin-1-yl)prop-2-en-1-one], the 50% inhibitory concentration (IC50) was in the range of 0.5 to 5 nM in assay [2], 5 to 50 nM in assay [3], 0.5 to 5 nM in assay [4] and 0.5 to 5 nM in assay [5].
In the case of `C=CC(=O)N1CC[C@H](n2cc(C#Cc3ccc4oc(NC)nc4c3)c3c(N)ncnc32)C1` [Example 7, (S)-1-(3-(4-amino-5-((2-(methylamino)benzo[d]oxazol-5-yl)ethynyl)-7H-pyrrolo[2,3-d]pyrimidin-7-yl)pyrrolidin-1-yl)prop-2-en-1-one], the IC50 in assay [2] fell in the range of 0.5 to 5 nM; in assay [3], 5 to 50 nM; in assay [4] it was 5 to 50 nM; in assay [5], 5 to 50 nM.
Regarding `C=CC(=O)N1CC[C@H](n2nc(C#Cc3ccc4sc(C5CC5)nc4c3)c3c(N)ncnc32)C1` [Example 54, (S)-1-(3-(4-amino-3-((2-cyclopropylbenzo[d]thiazol-5-yl)ethynyl)-1H-pyrazolo [3,4-d]pyrimidin-1-yl)pyrrolidin-1-yl)prop-2-en-1-one], the half-maximal inhibitory concentration (IC50) lay in the range of 0.5 to 5 nM in assay [2], 5 to 50 nM in assay [3], 0.5 to 5 nM in assay [4] and 0.5 to 5 nM in assay [5].
Take `C=CC(=O)N1CC[C@H](n2cc(C#Cc3ccc4oc(C(F)F)nc4c3)c3c(N)ncnc32)C1` [Example 71, (S)-1-(3-(4-amino-5-((2-(difluoromethyl)benzo[d]oxazol-5-yl)ethynyl)-7H-pyrrolo[2,3-d]pyrimidin-7-yl)pyrrolidin-1-yl)prop-2-en-1-one]: the 50% inhibitory concentration (IC50) in assay [2] is 0.5 to 5 nM; in assay [3] it was 5 to 50 nM; in assay [4], 5 to 50 nM; in assay [5], 0.5 to 5 nM.
Regarding `C=CC(=O)N1CC[C@H](n2cc(C#Cc3c(F)cc4sc(C5CC5)nc4c3F)c3c(N)ncnc32)C1` [Example 51, (S)-1-(3-(4-amino-5-((2-cyclopropyl-4,6-difluoro-benzo[d]thiazol-5-yl)ethynyl)-7H-pyrrolo[2,3-d]pyrimidin-7-yl)pyrrolidin-1-yl) prop-2-en-1-one], the IC50 in assay [1] was not above 0.5 nM; in assay [2] it was not above 0.5 nM; in assay [3] it was 0.5 to 5 nM; in assay [4], 0.5 to 5 nM; in assay [5], 0.5 to 5 nM.
As for `C=CC(=O)N1CC[C@H](n2cc(C#Cc3cc4nc(C5CC5)sc4cc3F)c3c(N)ncnc32)C1` [Example 48, (S)-1-(3-(4-amino-5-((2-cyclopropyl-6-fluorobenzo [d]thiazol-5-yl)ethynyl)-7H-pyrrolo[2,3-d]pyrimidin-7-yl)pyrrolidin-1-yl)prop-2-en-1-one], the concentration for half-maximal inhibition (IC50) in assay [1] was not above 0.5 nM; in assay [2], 0.5 to 5 nM; in assay [3] it was 0.5 to 5 nM; in assay [4], 0.5 to 5 nM; in assay [5], 0.5 to 5 nM.
For the molecule `C=CC(=O)N1CC[C@H](n2cc(C#Cc3ccc4oc(C)nc4c3)c3c(N)ncnc32)C1` [Example 2, (S)-1-(3-(4-amino-5-((2-methylbenzo[d]oxazol-5-yl)ethynyl)-7H-pyrrolo[2,3-d]pyrimidin-7-yl)pyrrolidin-1-yl)prop-2-en-1-one], the IC50 in assay [2] is not above 0.5 nM; in assay [3] it was 5 to 50 nM; in assay [4] it was 0.5 to 5 nM; in assay [5], 0.5 to 5 nM.
On to `C=CC(=O)N1CC[C@H](n2nc(C#Cc3ccc4sc(C)nc4c3)c3c(N)ncnc32)C1` [Example 52, (S)-1-(3-(4-amino-3-((2-methylbenzo[d]thiazol-5-yl)ethynyl)-1H-pyrazolo [3,4-d]pyrimidin-1-yl)pyrrolidin-1-yl)prop-2-en-1-one], for which the 50% inhibitory concentration (IC50) lay within 0.5 to 5 nM in assay [2], 5 to 50 nM in assay [3], 5 to 50 nM in assay [4] and 5 to 50 nM in assay [5].
Consider `C=CC(=O)N1CC[C@H](n2nc(C#Cc3cnc4sc(C)nc4c3)c3c(N)ncnc32)C1` [Example 41, (S)-1-(3-(4-amino-3-((2-methylthiazolo[5,4-6]pyridin-6-yl)ethynyl)-1H-pyrazolo [3,4-d]pyrimidin-1-yl)pyrrolidin-1-yl)prop-2-en-1-one], for which the IC50 in assay [2] was 5 to 50 nM; in assay [3], 50 to 500 nM; in assay [4] it was 0.5 to 5 nM; in assay [5], 5 to 50 nM.
For `C=CC(=O)N1CC[C@H](n2nc(C#Cc3ccc4sc(CC)nc4c3)c3c(N)ncnc32)C1` [Example 53, (S)-1-(3-(4-amino-3-((2-ethylbenzo[d]thiazol-5-yl)ethynyl)-1H-pyrazolo[3,4-d]pyrimidin-1-yl)pyrrolidin-1-yl)prop-2-en-1-one], the IC50 is not above 0.5 nM in assay [1]; 0.5 to 5 nM in assay [2]; 5 to 50 nM in assay [3]; 0.5 to 5 nM in assay [4]; 0.5 to 5 nM in assay [5].
With `C=CC(=O)N1CC[C@H](n2cc(C#Cc3ccc4sc(CC)nc4c3)c3c(N)ncnc32)C1` [Example 44, (S)-1-(3-(4-amino-5-((2-ethylbenzo[d]thiazol-5-yl)ethynyl)-7H-pyrrolo[2,3-d]pyrimidin-7-yl)pyrrolidin-1-yl)prop-2-en-1-one], the 50% inhibitory concentration (IC50) is not above 0.5 nM in assay [1]; 0.5 to 5 nM in assay [2]; 5 to 50 nM in assay [3]; 0.5 to 5 nM in assay [4]; 0.5 to 5 nM in assay [5].
For the molecule `C=CC(=O)N1CC[C@H](n2nc(C#Cc3ccc4sc(C(F)F)nc4c3)c3c(N)ncnc32)C1` [Example 55, (S)-1-(3-(4-amino-3-((2-(difluoromethyl)benzo[d]thiazol-5-yl)ethynyl)-1H-pyrazolo[3,4-d]pyrimidin-1-yl)pyrrolidin-1-yl)prop-2-en-1-one], the half-maximal inhibitory concentration (IC50) in assay [2] lay in the range of 5 to 50 nM; in assay [3] it was 5 to 50 nM; in assay [4], 5 to 50 nM; in assay [5], 0.5 to 5 nM.
For the molecule `C=CC(=O)N1CC[C@H](n2nc(C#Cc3cc4nc(C)sc4cc3F)c3c(N)ncnc32)C1` [Example 57, (S)-1-(3-(4-amino-3-((6-fluoro-2-methylbenzo[d]thiazol-5-yl)ethynyl)-1H-pyrazolo[3,4-d]pyrimidin-1-yl)pyrrolidin-1-yl)prop-2-en-1-one], the IC50 in assay [1] is not above 0.5 nM; in assay [2], not above 0.5 nM; in assay [3], 5 to 50 nM; in assay [4], 0.5 to 5 nM; in assay [5], 0.5 to 5 nM.
With `C=CC(=O)N1CC[C@H](n2cc(C#Cc3cc4nc(C(F)(F)F)oc4cc3F)c3c(N)ncnc32)C1` [Example 72, (S)-1-(3-(4-amino-5-((6-fluoro-2-(trifluoromethyl)benzo[d]oxazol-5-yl)ethynyl)-7H-pyrrolo[2,3-d]pyrimidin-7-yl)pyrrolidin-1-yl) prop-2-en-1-one], the figures for the IC50 in assay [2] and in assay [3] were 5 to 50 nM and 50 to 500 nM, respectively.
`C=CC(=O)N1CC[C@H](n2cc(C#Cc3ccc4sc(C(F)F)nc4c3)c3c(N)ncnc32)C1` [Example 45, (S)-1-(3-(4-amino-5-((2-(difluoromethyl)benzo[d]thiazol-5-yl)ethynyl)-7H-pyrrolo[2,3-d]pyrimidin-7-yl)pyrrolidin-1-yl)prop-2-en-1-one]: the IC50 was in the range of 0.5 to 5 nM in assay [2], 5 to 50 nM in assay [3], 0.5 to 5 nM in assay [4] and 0.5 to 5 nM in assay [5].
